Source: ChEMBL document CHEMBL1135773, “Purine and pyrimidine (P2) receptors as drug targets” (J Med Chem, 2002)

Legend:
[1] = biological target: T1, P2X purinoceptor 1 (Rattus norvegicus, UniProt P47824); experiment: The compound was evaluated for antagonist activity against recombinant rat P2X purinoceptor 1 (P2X1); assay type: functional
T1 sequence (P47824 whole entry): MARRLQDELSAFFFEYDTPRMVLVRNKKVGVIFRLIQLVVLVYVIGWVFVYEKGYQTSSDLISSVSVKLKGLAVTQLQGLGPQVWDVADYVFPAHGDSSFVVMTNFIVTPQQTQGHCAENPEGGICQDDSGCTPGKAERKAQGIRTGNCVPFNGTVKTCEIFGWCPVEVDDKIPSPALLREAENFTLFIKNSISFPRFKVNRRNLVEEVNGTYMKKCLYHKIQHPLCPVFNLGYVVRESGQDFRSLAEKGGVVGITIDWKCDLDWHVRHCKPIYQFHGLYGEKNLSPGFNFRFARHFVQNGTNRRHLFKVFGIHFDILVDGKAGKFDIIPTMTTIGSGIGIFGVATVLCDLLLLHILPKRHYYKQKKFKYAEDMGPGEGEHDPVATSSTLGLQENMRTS

[2] = biological target: T2, P2Y purinoceptor 11 (Homo sapiens, UniProt Q96G91); experiment: Agonist activity against phospholipase C coupled human P2Y purinoceptor 11 (P2Y11); assay type: functional
T2 sequence (Q96G91 whole entry): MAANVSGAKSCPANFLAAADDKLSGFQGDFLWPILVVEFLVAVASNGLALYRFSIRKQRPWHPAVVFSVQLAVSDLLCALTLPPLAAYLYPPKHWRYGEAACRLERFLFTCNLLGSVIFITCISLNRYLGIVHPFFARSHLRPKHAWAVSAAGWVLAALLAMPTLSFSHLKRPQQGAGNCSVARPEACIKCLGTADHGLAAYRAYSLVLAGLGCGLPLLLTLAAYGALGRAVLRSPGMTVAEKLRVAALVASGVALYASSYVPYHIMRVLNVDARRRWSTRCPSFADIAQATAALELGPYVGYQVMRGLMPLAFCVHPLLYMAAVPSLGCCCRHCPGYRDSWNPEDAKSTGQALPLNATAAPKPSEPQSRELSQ

[3] = biological target: P2Y purinoceptor 1 (Homo sapiens, UniProt P47900); experiment: Evaluated for agonist activity against phospholipase C coupled P2Y purinoceptor 1 (P2Y1) of human erythrocytes; assay type: functional
[4] = biological target: P2Y purinoceptor 2 (Homo sapiens, UniProt P41231); experiment: Evaluated for agonist activity against phospholipase C coupled recombinant human P2Y purinoceptor 2 (P2Y2); assay type: functional
[5] = biological target: P2Y purinoceptor 6 (Homo sapiens, UniProt Q15077); experiment: The compound was evaluated for agonist activity against phospholipase C coupled recombinant human P2Y purinoceptor 6 (P2Y6); assay type: functional
[6] = biological target: T3, P2X purinoceptor 4 (Rattus norvegicus, UniProt P51577); experiment: Antagonist activity against recombinant rat P2X purinoceptor 4 (P2X4) at 30 uM, expressed in Xenopus oocytes; assay type: functional, cell-based, Oocyte
T3 sequence (P51577 whole entry): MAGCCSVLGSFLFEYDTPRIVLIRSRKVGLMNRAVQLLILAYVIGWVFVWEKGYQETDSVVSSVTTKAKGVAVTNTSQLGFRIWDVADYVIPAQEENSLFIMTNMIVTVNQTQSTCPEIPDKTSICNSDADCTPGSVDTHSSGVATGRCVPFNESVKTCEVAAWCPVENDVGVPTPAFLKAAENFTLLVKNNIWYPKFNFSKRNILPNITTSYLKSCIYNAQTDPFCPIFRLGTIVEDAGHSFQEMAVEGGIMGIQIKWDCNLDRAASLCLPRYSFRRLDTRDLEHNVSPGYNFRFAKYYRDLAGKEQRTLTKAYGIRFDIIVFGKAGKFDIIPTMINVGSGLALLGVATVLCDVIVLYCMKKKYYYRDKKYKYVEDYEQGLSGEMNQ

[7] = biological target: T4, P2X purinoceptor 5 (Rattus norvegicus, UniProt P51578); experiment: Antagonist activity against recombinant rat P2X purinoceptor 5 (P2X5); assay type: functional
T4 sequence (P51578 whole entry): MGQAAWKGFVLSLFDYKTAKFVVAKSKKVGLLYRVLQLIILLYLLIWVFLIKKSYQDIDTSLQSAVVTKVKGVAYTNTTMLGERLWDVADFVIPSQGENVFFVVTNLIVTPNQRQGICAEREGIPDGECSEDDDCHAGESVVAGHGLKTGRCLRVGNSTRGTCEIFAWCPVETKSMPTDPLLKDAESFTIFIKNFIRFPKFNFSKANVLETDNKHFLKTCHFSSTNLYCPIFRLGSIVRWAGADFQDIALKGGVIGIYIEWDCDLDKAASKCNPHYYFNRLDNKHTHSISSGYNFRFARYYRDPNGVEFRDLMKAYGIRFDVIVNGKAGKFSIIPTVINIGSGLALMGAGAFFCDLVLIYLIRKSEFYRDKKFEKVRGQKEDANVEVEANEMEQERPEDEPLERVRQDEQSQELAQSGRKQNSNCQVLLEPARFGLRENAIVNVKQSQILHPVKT

[8] = biological target: P2X purinoceptor 6 (Rattus norvegicus, UniProt P51579); experiment: Antagonist activity against recombinant rat P2X purinoceptor 6 (P2X6 ); assay type: functional
[9] = biological target: T5, P2X purinoceptor 2 (Rattus norvegicus, UniProt P49653); experiment: Antagonist activity against recombinant rat receptor P2X purinoceptor 2 (P2X2) at 10 uM, expressed in Xenopus oocytes; assay type: functional, cell-based, Oocyte
T5 sequence (P49653 whole entry): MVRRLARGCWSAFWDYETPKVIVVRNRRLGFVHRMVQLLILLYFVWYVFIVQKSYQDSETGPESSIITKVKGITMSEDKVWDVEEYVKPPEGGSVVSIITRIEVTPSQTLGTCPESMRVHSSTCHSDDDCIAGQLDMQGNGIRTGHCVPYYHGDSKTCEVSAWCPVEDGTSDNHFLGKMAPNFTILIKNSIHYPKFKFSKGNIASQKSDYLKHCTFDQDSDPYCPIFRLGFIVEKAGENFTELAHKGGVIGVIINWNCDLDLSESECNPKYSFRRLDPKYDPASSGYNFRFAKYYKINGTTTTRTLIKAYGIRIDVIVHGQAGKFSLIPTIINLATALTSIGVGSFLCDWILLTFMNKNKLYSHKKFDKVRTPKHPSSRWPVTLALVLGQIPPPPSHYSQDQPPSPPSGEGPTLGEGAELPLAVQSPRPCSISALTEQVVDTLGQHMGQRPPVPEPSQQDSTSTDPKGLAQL

[10] = biological target: T6, P2X purinoceptor 3 (Homo sapiens, UniProt P56373); experiment: Antagonist activity against recombinant human P2X purinoceptor 3 (P2X3 ); assay type: functional
T6 sequence (P56373 whole entry): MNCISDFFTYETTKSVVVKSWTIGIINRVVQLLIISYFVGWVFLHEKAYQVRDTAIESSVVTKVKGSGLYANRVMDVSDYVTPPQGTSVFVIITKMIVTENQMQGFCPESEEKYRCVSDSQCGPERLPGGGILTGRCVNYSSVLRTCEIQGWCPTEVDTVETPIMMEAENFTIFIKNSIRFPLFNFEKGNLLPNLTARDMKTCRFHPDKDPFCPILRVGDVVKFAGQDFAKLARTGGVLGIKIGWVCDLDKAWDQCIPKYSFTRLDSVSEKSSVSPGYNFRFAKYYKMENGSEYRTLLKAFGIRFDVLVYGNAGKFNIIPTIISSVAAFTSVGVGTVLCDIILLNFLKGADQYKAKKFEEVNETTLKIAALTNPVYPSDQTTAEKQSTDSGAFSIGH

[11] = biological target: P2Y purinoceptor 12 (Rattus norvegicus, UniProt Q9EPX4); experiment: Antagonist activity against phospholipase C coupled rat P2Y purinoceptor 12 (P2Y12); assay type: functional
[12] = biological target: P2Y purinoceptor 1 (Meleagris gallopavo, UniProt P49652); experiment: Evaluated for agonist activity against phospholipase C coupled P2Y purinoceptor 1 (P2Y1) of turkey erythrocytes; assay type: functional
[13] = biological target: T7, P2X purinoceptor 1 (Homo sapiens, UniProt P51575); experiment: Antagonist activity against recombinant human P2X purinoceptor 1 (P2X1 ); assay type: functional
T7 sequence (P51575 whole entry): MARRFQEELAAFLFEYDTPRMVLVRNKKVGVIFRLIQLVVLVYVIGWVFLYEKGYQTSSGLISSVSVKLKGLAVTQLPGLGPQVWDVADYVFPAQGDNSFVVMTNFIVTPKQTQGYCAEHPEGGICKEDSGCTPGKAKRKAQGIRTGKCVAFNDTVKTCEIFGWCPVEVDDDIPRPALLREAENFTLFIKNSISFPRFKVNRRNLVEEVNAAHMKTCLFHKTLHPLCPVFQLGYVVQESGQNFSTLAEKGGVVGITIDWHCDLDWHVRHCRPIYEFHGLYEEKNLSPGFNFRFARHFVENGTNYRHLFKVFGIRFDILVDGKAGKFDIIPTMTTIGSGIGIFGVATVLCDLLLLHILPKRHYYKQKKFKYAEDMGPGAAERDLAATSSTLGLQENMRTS

[14] = biological target: T3, P2X purinoceptor 4; experiment: Antagonist activity against recombinant rat P2X purinoceptor 4 (P2X4) at 3 uM, expressed in Xenopus oocytes; assay type: functional, cell-based, Oocyte
[15] = biological target: T1, P2X purinoceptor 1; experiment: The compound was evaluated for antagonist activity against recombinant rat P2X purinoceptor 1 (P2X1) at 1 uM, expressed in Xenopus oocytes; assay type: functional, cell-based, Oocyte

Chain of P2Y purinoceptor 1 (Meleagris gallopavo, UniProt P49652) (P49652 whole entry): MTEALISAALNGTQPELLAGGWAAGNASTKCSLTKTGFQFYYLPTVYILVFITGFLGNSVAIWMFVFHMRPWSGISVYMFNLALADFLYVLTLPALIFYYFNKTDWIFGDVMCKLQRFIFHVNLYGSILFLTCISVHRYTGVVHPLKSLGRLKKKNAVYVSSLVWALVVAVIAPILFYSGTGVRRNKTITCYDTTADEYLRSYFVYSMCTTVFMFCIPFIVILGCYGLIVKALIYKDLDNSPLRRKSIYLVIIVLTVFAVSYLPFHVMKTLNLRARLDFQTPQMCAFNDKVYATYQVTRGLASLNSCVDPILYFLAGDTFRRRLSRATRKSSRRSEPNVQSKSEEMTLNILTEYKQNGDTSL
Chain of P2Y purinoceptor 2 (P41231 whole entry): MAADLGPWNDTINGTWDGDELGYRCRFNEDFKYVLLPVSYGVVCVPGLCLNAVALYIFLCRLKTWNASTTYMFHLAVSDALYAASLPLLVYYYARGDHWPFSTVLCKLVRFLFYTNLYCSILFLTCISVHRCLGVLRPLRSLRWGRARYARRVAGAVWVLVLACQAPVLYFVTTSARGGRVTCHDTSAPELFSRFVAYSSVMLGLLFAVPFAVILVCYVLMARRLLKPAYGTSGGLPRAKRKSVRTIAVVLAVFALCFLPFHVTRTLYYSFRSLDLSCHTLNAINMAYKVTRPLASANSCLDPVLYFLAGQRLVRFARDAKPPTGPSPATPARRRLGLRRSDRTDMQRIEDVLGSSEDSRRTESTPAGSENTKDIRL
Chain of P2Y purinoceptor 12 (Q9EPX4 whole entry): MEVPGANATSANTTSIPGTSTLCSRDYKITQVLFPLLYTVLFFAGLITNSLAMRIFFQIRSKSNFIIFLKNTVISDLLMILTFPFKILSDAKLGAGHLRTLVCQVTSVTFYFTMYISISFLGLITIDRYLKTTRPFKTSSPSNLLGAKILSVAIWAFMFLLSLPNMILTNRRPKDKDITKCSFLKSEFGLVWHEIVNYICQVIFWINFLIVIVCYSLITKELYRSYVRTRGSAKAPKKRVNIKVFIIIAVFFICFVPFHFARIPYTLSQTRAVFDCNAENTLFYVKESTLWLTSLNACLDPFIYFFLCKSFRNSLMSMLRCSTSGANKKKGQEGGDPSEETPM
Chain of P2Y purinoceptor 1 (Homo sapiens, UniProt P47900) (P47900 whole entry): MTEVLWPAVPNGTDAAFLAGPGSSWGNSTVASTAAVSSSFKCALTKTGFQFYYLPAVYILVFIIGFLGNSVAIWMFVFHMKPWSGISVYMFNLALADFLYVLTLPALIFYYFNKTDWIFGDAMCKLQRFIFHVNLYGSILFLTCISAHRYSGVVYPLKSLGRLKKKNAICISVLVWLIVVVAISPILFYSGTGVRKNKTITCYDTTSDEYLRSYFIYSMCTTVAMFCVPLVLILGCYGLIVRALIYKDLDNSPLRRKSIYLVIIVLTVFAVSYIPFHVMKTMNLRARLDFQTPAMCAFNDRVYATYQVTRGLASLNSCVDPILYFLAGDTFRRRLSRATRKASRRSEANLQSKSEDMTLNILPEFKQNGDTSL
Chain of P2X purinoceptor 6 (P51579 whole entry): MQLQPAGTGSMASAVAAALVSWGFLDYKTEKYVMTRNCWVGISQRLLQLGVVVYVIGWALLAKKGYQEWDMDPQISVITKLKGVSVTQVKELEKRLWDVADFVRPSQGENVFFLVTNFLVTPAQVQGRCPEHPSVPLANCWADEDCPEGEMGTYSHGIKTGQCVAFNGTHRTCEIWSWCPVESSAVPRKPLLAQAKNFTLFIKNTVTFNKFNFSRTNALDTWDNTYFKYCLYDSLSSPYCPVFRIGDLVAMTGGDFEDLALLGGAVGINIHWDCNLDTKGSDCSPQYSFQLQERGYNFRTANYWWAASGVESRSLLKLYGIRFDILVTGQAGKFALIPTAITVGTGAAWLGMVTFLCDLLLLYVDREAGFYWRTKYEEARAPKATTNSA
Chain of P2Y purinoceptor 6 (Q15077 whole entry): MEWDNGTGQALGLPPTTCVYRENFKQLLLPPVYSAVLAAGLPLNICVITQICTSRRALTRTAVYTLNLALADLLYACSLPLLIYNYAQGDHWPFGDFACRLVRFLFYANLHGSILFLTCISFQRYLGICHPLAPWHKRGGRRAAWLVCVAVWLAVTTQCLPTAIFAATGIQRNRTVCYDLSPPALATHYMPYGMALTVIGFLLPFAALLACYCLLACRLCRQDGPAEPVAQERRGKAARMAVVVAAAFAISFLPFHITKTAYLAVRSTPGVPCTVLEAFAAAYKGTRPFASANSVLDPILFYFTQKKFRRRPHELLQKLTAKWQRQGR

Question: With O=c1[nH]cnc2c1ncn2[C@@H]1O[C@H](COP(=O)(O)OP(=O)(O)OP(=O)(O)OP(=O)(O)OP(=O)(O)OC[C@H]2O[C@@H](n3cnc4c(=O)[nH]cnc43)[C@H](O)[C@@H]2O)[C@@H](O)[C@H]1O as the molecule, how does the EC50 [1] read?
Answer: 1.5 nM

Question: How did the EC50 [2] turn out when Nc1ncnc2c1ncn2[C@H]1C[C@H](O)[C@@H](COP(=O)(O)OP(=O)(O)OP(=O)(O)O)O1 was run?
Answer: 9000 nM

Question: O=c1ccn([C@@H]2O[C@H](COP(=O)(O)OP(=O)(O)O)[C@@H](O)[C@H]2O)c(=O)[nH]1 [URIDINE_DIPHOSPHATE] was tested. Which EC50 [3] did it give?
Answer: > 100000 nM

Question: What about the EC50 [4] of the same molecule?
Answer: > 100000 nM

Question: And the EC50 [5]?
Answer: 300 nM

Question: Which results are given for Nc1ncnc2c1ncn2[C@@H]1O[C@H](CO[P@](=O)(O)O[P@](=O)(O)O[P@@](=O)(O)S)[C@@H](O)[C@H]1O?
Answer: EC50 [6]: 2300 nM; EC50 [7]: 600 nM; EC50 [8]: 1300 nM; EC50 [9]: 1500 nM; EC50 [4]: 1720 nM; EC50 [10]: 690 nM; EC50 [2]: 3000 nM; EC50 [11]: 1300 nM; EC50 [12]: 1300 nM; EC50 [13]: 2300 nM

Question: Which results are given for Nc1ncnc2c1ncn2[C@@H]1O[C@H](COP(=O)(O)OP(=O)(O)CP(=O)(O)O)[C@@H](O)[C@H]1O [PHOSPHOMETHYLPHOSPHONIC ACID ADENYLATE ESTER]?
Answer: EC50 [11]: > 100000 nM; EC50 [12]: > 100000 nM; EC50 [13]: 2000 nM

Question: What does the source list for Nc1ccc(CCSc2nc(N)c3ncn([C@@H]4O[C@H](COP(=O)(O)OP(=O)(O)OP(=O)(O)O)[C@@H](O)[C@H]4O)c3n2)cc1?
Answer: EC50 [14]: 15000 nM; EC50 [12]: 1.5 nM; EC50 [15]: 98 nM

Question: Which EC50 [12] does the source give for Nc1ncnc2c1ncn2[C@H]1CC(OP(=O)(O)O)C2(COP(=O)(O)O)CC12 (stereo partly drawn) here?
Answer: 155 nM

Question: With Nc1ncnc2c1ncn2[C@@H]1CO[C@H](COP(=O)(O)O)[C@@H](OP(=O)(O)O)C1 as the molecule, how does the EC50 [12] read?
Answer: 3 nM
